Data as given in patent publication US12564193B2, “Isoxazoline-substituted benzamide derivative, and preparation method therefor and use thereof” (SHANDONG UNITED PESTICIDE INDUSTRY CO., LTD., priority 2020, dated 2026).
Where two headings read alike, the source gives them in different places.

Tests used:
Format in all cases: in vivo
[1] = tested on: Plutella xylostella; experiment: Insecticidal activity, spray on pre-infested radish plants: Plutella xylostella; details: Plutella xylostella, 144 h, read-out: fatality rate on Plutella xylostella
Protocol: (§1) For determination of insecticidal activity, the test method was as follows: a test solution with a desired concentration was prepared by dissolving a test compound sample in a suitable solvent (the kind of solvent was such as acetone, methanol, DMSO, etc., and was selected according to its dissolving ability for the sample). The test cell was composed of a small open container with 12-15 day old radish plants inside. The plants were pre-infested by placing 30-40 pests located on one leaf cut from the cultivated plant on one leaf of the test plant (leaf cutting method). As the leaves dehydrated, the pests moved on the test plants. After the pre-infesting, the soil of the test cells was covered with a layer of sand.
(§2) The test method was as follows: the test was repeated for three times, and after spraying the formulated test compound, each test unit was allowed to dry for 1 hour, and then a black mesh cover was placed at the top. The test units were kept in a growth chamber at 25° C. and 70% relative humidity for 6 days. The mortality (fatality rate) of the insects was then visually assessed for each test unit, and the fatality rate was calculated as follows: […]

[2] = tested on: Mythimna separata; experiment: Insecticidal activity, spray on pre-infested radish plants: Mythimna separata; details: Mythimna separata, 144 h, read-out: fatality rate on Mythimna separata
Protocol: as §1, §2

[3] = tested on: Tetranychus cinnabarinus; experiment: Acaricidal activity, slide immersion of female adult mites: Tetranychus cinnabarinus; details: read-out: fatality rate on Tetranychus cinnabarinus
Protocol: The test method was as follows: a test solution with a desired concentration was prepared by dissolving a test compound sample in a suitable solvent (the kind of solvent was such as acetone, methanol, DMSO, etc., and was selected according to its dissolving ability for the sample). A double-sided adhesive tape was cut into 2-3 cm long pieces, the pieces were attached to one end of a microscope slide, paper pieces on the adhesive tape were removed using tweezers, female adult mites which were consistent in size, bright in body color and lively in action were selected using a zero-size brush pen, the backs of the female adult mites were adhered to the double-sided adhesive tape (note: the adhesion should not cover mite feet, mite whiskers and mouthparts), with 4 rows of mites adhered to each piece and 10 heads of the mites adhered to each row.
One end of the glass slide with the mites was immersed into a drug liquid, with slightly shaking for 5 seconds, and then the slide was taken out. The excess drug liquid around the mite body and is surroundings is quickly sucked off using absorbent paper. The slide was placed in the biochemical incubator described above, and the results were checked by using binoculars after 24 hours. The mites were slightly touched by using a brush pen, the mites with immobility in feet were considered to be dead, and the fatality rate was calculated. The fatality rate was calculated as follows: […]

[4] = tested on: Spodoptera litura; experiment: Insecticidal activity, spray on pre-infested radish plants: Spodoptera litura; details: 144 h, read-out: fatality rate on Spodoptera litura
Protocol: as §1, §2

[5] = tested on: Cnaphalocrocis medinalis; experiment: Insecticidal activity, spray on pre-infested radish plants: Cnaphalocrocis medinalis; details: 144 h, read-out: fatality rate on Cnaphalocrocis medinalis
Protocol: as §1, §2

[6] = tested on: Pieris rapae; experiment: Insecticidal activity, spray on pre-infested radish plants: Pieris rapae; details: 144 h, read-out: fatality rate on Pieris rapae
Protocol: as §1, §2

[7] = tested on: Frankliniella occidentalis; experiment: Insecticidal activity, spray on pre-infested radish plants: Frankliniella occidentalis; details: Frankliniella occidentalis, 144 h, read-out: fatality rate on Frankliniella occidentalis
Protocol: as §1
The test method was as follows: the test was repeated for three times, and after spraying the formulated test compound, each test unit was allowed to dry for 1 hour, and then a black mesh cover was placed at the top. The test units were kept in a growth chamber at 25° C. and 70% relative humidity for 6 days. The mortality (fatality rate) of the insects was then visually assessed for each test unit, and the fatality rate was calculated as follows:
[formula] (1) Test Results for the Control of Frankliniella occidentalis by Exemplary Example Compounds

[8] = tested on: Chilo suppressalis; experiment: Insecticidal activity, spray on pre-infested radish plants: Chilo suppressalis; details: Chilo suppressalis, 144 h, read-out: fatality rate on Chilo suppressalis
Protocol: as §1, §2

[9] = dose 1 ppm, immersion 5 seconds, checked after 24 hours
[10] = dose 10 ppm, immersion 5 seconds, checked after 24 hours
[11] = dose 25 ppm, immersion 5 seconds, checked after 24 hours

Cc1cc(C2=NOC(c3cc(F)c(F)c(F)c3)(C(F)(F)F)C2)ccc1C(=O)NCc1ncc(Cl)cc1Cl (stereo not drawn) [Compound 12]
> 80%: pest or weed control at 0.1 ppm ([1]; dose 0.1 ppm, spray, 6 days) | pest or weed control at 1 ppm ([1]; dose 1 ppm, spray, 6 days) | pest or weed control at 10 ppm ([1]; dose 10 ppm, spray, 6 days) | pest or weed control at 0.1 ppm ([2]; dose 0.1 ppm, spray, 6 days) | pest or weed control at 1 ppm ([2]; dose 1 ppm, spray, 6 days) | pest or weed control at 10 ppm ([2]; dose 10 ppm, spray, 6 days) | pest or weed control at 1 ppm [3, 9] | pest or weed control at 10 ppm [3, 10] | pest or weed control at 25 ppm [3, 11] | pest or weed control at 0.1 ppm ([4]; dose 0.1 ppm, spray, 6 days) | pest or weed control at 1 ppm ([4]; dose 1 ppm, spray, 6 days) | pest or weed control at 10 ppm ([4]; dose 10 ppm, spray, 6 days) | pest or weed control at 0.1 ppm ([5]; dose 0.1 ppm, spray, 6 days) | pest or weed control at 1 ppm ([5]; dose 1 ppm, spray, 6 days) | pest or weed control at 10 ppm ([5]; dose 10 ppm, spray, 6 days) | pest or weed control at 0.1 ppm ([6]; dose 0.1 ppm, spray, 6 days) | pest or weed control at 1 ppm ([6]; dose 1 ppm, spray, 6 days) | pest or weed control at 10 ppm ([6]; dose 10 ppm, spray, 6 days) | pest or weed control at 1 ppm ([7]; dose 1 ppm, spray, 6 days) | pest or weed control at 10 ppm ([7]; dose 10 ppm, spray, 6 days) | pest or weed control at 25 ppm ([7]; dose 25 ppm, spray, 6 days) | pest or weed control at 0.1 ppm ([8]; dose 0.1 ppm, spray, 6 days) | pest or weed control at 1 ppm ([8]; dose 1 ppm, spray, 6 days) | pest or weed control at 10 ppm ([8]; dose 10 ppm, spray, 6 days)

Cc1cc(C2=NOC(c3cc(Cl)c(F)c(Cl)c3)(C(F)(F)F)C2)ccc1C(=O)NCc1ncccc1Cl (stereo not drawn) [Compound 13]
> 80%: pest or weed control at 0.1 ppm [1] | pest or weed control at 1 ppm [1] | pest or weed control at 10 ppm [1] | pest or weed control at 0.1 ppm [2] | pest or weed control at 1 ppm [2] | pest or weed control at 10 ppm [2] | pest or weed control at 1 ppm ([3]; 24 h) | pest or weed control at 10 ppm ([3]; 24 h) | pest or weed control at 25 ppm ([3]; 24 h) | pest or weed control at 0.1 ppm [4] | pest or weed control at 1 ppm [4] | pest or weed control at 10 ppm [4] | pest or weed control at 0.1 ppm [5] | pest or weed control at 1 ppm [5] | pest or weed control at 10 ppm [5] | pest or weed control at 0.1 ppm [6] | pest or weed control at 1 ppm [6] | pest or weed control at 10 ppm [6] | pest or weed control at 1 ppm [7] | pest or weed control at 10 ppm [7] | pest or weed control at 25 ppm [7] | pest or weed control at 0.1 ppm [8] | pest or weed control at 1 ppm [8] | pest or weed control at 10 ppm [8]

Cc1cc(C2=NOC(c3cc(F)c(F)c(F)c3)(C(F)(F)F)C2)ccc1C(=O)NCc1ncccc1Cl (stereo not drawn) [Compound 14]
> 80%: pest or weed control at 0.1 ppm ([1]; dose 0.1 ppm, spray, 6 days) | pest or weed control at 1 ppm ([1]; dose 1 ppm, spray, 6 days) | pest or weed control at 10 ppm ([1]; dose 10 ppm, spray, 6 days) | pest or weed control at 0.1 ppm ([2]; dose 0.1 ppm, spray, 6 days) | pest or weed control at 1 ppm ([2]; dose 1 ppm, spray, 6 days) | pest or weed control at 10 ppm ([2]; dose 10 ppm, spray, 6 days) | pest or weed control at 1 ppm [3, 9] | pest or weed control at 10 ppm [3, 10] | pest or weed control at 25 ppm [3, 11] | pest or weed control at 0.1 ppm ([4]; dose 0.1 ppm, spray, 6 days) | pest or weed control at 1 ppm ([4]; dose 1 ppm, spray, 6 days) | pest or weed control at 10 ppm ([4]; dose 10 ppm, spray, 6 days) | pest or weed control at 0.1 ppm ([5]; dose 0.1 ppm, spray, 6 days) | pest or weed control at 1 ppm ([5]; dose 1 ppm, spray, 6 days) | pest or weed control at 10 ppm ([5]; dose 10 ppm, spray, 6 days) | pest or weed control at 0.1 ppm ([6]; dose 0.1 ppm, spray, 6 days) | pest or weed control at 1 ppm ([6]; dose 1 ppm, spray, 6 days) | pest or weed control at 10 ppm ([6]; dose 10 ppm, spray, 6 days) | pest or weed control at 1 ppm ([7]; dose 1 ppm, spray, 6 days) | pest or weed control at 10 ppm ([7]; dose 10 ppm, spray, 6 days) | pest or weed control at 25 ppm ([7]; dose 25 ppm, spray, 6 days) | pest or weed control at 0.1 ppm ([8]; dose 0.1 ppm, spray, 6 days) | pest or weed control at 1 ppm ([8]; dose 1 ppm, spray, 6 days) | pest or weed control at 10 ppm ([8]; dose 10 ppm, spray, 6 days)
